In patent publication US20180021320A1, “Method of Preventing or Treating Hearing Loss” (SUPPORT-VENTURE GMBH, priority 2015, published 2018):
Entries after “also recorded” stand apart in the source; their conditions may differ.

Key:
[1] = test system: hair cells of mouse OC's in culture; experiment: Protection against gentamicin-induced hair cell loss in mouse organ of Corti explants; assay type: cell-based; conditions: 24 h; for loss of hair cells: 50 μM gentamicin alone
Procedure: (§1) OCs were harvested then placed in culture medium [Dulbecco's Modified Eagle Medium supplemented with 10% FCS, 25 mM HEPES and 30 U/ml penicillin (Invitrogen, Carlsbad, Calif., USA)] and incubated for 24 hours at 37° C. in an atmosphere of 95% O2/5% CO2. After that period, the culture medium was replaced with fresh medium containing no compound or 200 μM gentamycin alone or 200 μM gentamicin with either 2 or 10 μM pioglitazone, and incubated for a further 48 hours at 37° C. Ten OC explants were used for each treatment condition.
(§2) After incubation with compounds, the OCs were fixed in 4% paraformaldehyde, washed and then stained with a fluorescein (FITC)-conjugated phalloidin to detect inner and outer hair cells. After staining, the OCs were visualized and photographed using a fluorescence microscope (Olympus FSX100). Outer and inner hair cells were separately quantitated for the apical, basal, and middle turn of each organ of Corti. The values for each turn were averaged for the 10 OCs used for each condition. Significant differences between treatment groups in numbers OHC and IHC were determined using analysis of variance (ANOVA) followed by the least significant difference (LSD) post-hoc test (Stat View 5.0). Differences associated with P-values of less than 0.05 were considered to be statistically significant. All data are presented as mean±SD.
Methods were similar to those in Example 1. The main differences were that mouse OC's were used rather than rat OC's. Moreover, treatment was performed for 24 hrs with 50 μM gentamicin. The number of OC's used for each experimental condition was 3-5. The concentrations of test substances were 2 μM and 10 μM for tesaglitazar and muraglitazar, and 25 μM and 150 μM for fenofibric acid.

[2] = test system: noise-induced hearing loss; experiment: Protection against noise-induced hearing loss, auditory brainstem response (ABR); assay type: in vivo, guinea pigs; conditions: for threshold shift (ABR), mean±SD: single 40 μl round window application day before noise
Description: The guinea pig model is the preferred animal species in hearing research. The agent application as well as the noise trauma was applied under general anesthesia. Upon arrival, animals underwent an acclimatization period of at least one week prior to experiments.
Guinea pigs were first anaesthetized and hearing evaluated by a standard ABR method then into treatment groups. Each animal received a single round window application of test substance to both ears. The following day, animals were exposed to 115 dB broad band noise for 2 hrs under anaesthesia. At one and two weeks following noise exposure, the animals underwent a second hearing evaluation.
Animals were dosed with a single 40 μl application of pioglitazone formulation or matching vehicle, onto the cochlear round window in both ears the day prior to noise exposure. For this approach, a hole was drilled in the rostral part of the skull to directly access the Bulla which allows drug application to the round window under visual control.
Animals were noise-exposed in a soundproof chamber (0.8×0.8×0.8 m, minimal attenuation 60 dB) for 2 h to broadband white noise (5-20 kHz) at 115 dB sound pressure level (SPL) under anaesthesia (60 mg/kg ketamine and 6 mg/kg xylazine). Noise was delivered binaurally by loudspeakers (HTC 11.19; Visaton, Haan, Germany) placed above the animal's head. The speakers were connected to an audio amplifier (Tangent AMP-50; Aulum, Denmark) and a DVD player.
At baseline before the noise exposure and on day 7 and 14 after noise, frequency-specific (2; 4; 8; 12; 16; 20; 24; 28; 32; 36; 40 kHz) auditory brainstem responses (ABR) were recorded in all treated animals and in controls. Auditory stimuli were delivered binaurally at different SPLs with a sinusoid generator (Model SSU2; Werk Fernmeldewesen, Berlin, Germany). Frequency output was controlled and adjusted with a digital counter (1941A Digital Counter; Fluke, Scarborough, Ontario, Canada). Sub-dermal needle electrodes were placed at the vertex (active), mastoid (reference), and in one foot (ground). ABR recordings were carried out with a Viking IV-measurement system (Viasys Healthcare, Conshohocken, Pa.). The brainstem responses were amplified (100,000×), filtered (bandpass 0.15-3 kHz), and averaged (300×) by the Viking IV-system. The amplitudes of the ABR waves were measured at different sound intensities by changing the attenuation of signal amplification. The amplitude-growth function was calculated for each tested frequency, and a linear regression was fitted to the linear portion of the data. The hearing threshold could be calculated for each frequency by extrapolating the linear amplitude-grow function of the regression line to zero. […]

[3] = test system: hair cells of organ of Corti (OC) explants; experiment: Protection against gentamicin-induced hair cell loss in rat organ of Corti explants; assay type: cell-based, Sprague-Dawley rats
Procedure: All animal procedures were carried out according to protocols approved by the Kantonales Veterinäramt, Basel, Switzerland. Postnatal day 5 (p5) Sprague-Dawley rats were used for the studies. Studies were performed in vitro, using organ of Corti (OC) explants from p5 animals. Animals were sacrificed and the cochleae carefully dissected to separate the organ of Corti from the spiral ganglion, stria vascularis and Reissner's membrane [Sobkowicz H M, Loftus J M, Slapnick S M. Acta Otolaryngol Suppl. 1993; 502:3-36].
as §1, §2

[4] = 2 μM test substance with 50 μM gentamicin
[5] = 10 μM test substance with 50 μM gentamicin
[6] = concentration not stated, 50 μM gentamicin, medio-basal turns

COc1ccc(OC(=O)N(CC(=O)O)Cc2ccc(OCCc3nc(-c4ccccc4)oc3C)cc2)cc1 [Muraglitazar]
protection from gentamicin-dependent hair cell loss [1, 4]: not effective
protection from gentamicin-dependent hair cell loss [1, 5]: partially protective
protection from gentamicin-dependent hair cell loss [1, 6]: protected from gentamicin-dependent hair cell loss; also recorded: significantly prevent gentamicin-dependent hair cell loss

CCc1ccc(CCOc2ccc(CC3SC(=O)NC3=O)cc2)nc1 (stereo not drawn) [Pioglitazone, pioglitazone]
reduction in the threshold shifts vs. vehicle controls ([2]; hearing recorded 7-14 days after noise trauma): > 50%
threshold shift (ABR), mean±SD ([2]; one week after noise (115 dB, 2 h), 5-20 kHz): 12.7±1.3 dB
protection from noise-induced hearing loss ([2]; one week after noise, vs. vehicle): approximately 60%
threshold shift (ABR), mean±SD ([2]; two weeks after noise (115 dB, 2 h)): 6.3±3.9 dB
prevention of gentamicin-dependent hair cell loss (IHC and OHC; apical, basal, middle turns) ([3]; 2 μM pioglitazone with 200 μM gentamicin, 48 h): significantly prevent gentamicin-dependent hair cell loss in all turns
prevention of gentamicin-dependent hair cell loss (IHC and OHC; apical, basal, middle turns) ([3]; 2 μM pioglitazone with 200 μM gentamicin, 48 h, listed as pioglitazone): completely prevent gentamicin-dependent hair cell loss in all turns
prevention of gentamicin-dependent hair cell loss (IHC and OHC; apical, basal, middle turns) ([3]; 10 μM pioglitazone with 200 μM gentamicin, 48 h): significantly prevent gentamicin-dependent hair cell loss in all turns
prevention of gentamicin-dependent hair cell loss (IHC and OHC; apical, basal, middle turns) ([3]; 10 μM pioglitazone with 200 μM gentamicin, 48 h, listed as pioglitazone): completely prevent gentamicin-dependent hair cell loss in all turns
prevention of gentamicin-dependent hair cell loss ([3]; pioglitazone co-treatment, concentration not stated, 48 h): almost completely preventing gentamicin-dependent hair cell loss

Tesaglitazar
protection from gentamicin-dependent hair cell loss [1, 4]: able to antagonize the effects of gentamicin and to preserve hair cell number and morphology
protection from gentamicin-dependent hair cell loss [1, 5]: able to antagonize the effects of gentamicin and to preserve hair cell number and morphology
protection from gentamicin-dependent hair cell loss [1, 6]: protected from gentamicin-dependent hair cell loss; also recorded: significantly prevent gentamicin-dependent hair cell loss

fenofibric acid
protection from gentamicin-dependent hair cell loss ([1]; 25 μM test substance with 50 μM gentamicin): not effective
protection from gentamicin-dependent hair cell loss ([1]; 150 μM test substance with 50 μM gentamicin): completely protective
protection from gentamicin-dependent hair cell loss [1, 6]: protected from gentamicin-dependent hair cell loss; also recorded: significantly prevent gentamicin-dependent hair cell loss

gentamicin
loss of hair cells [1]: approximately 50%
loss of hair cells ([1]; listed as Gentamicin): 50%
reduction of hair cell number ([3]; 200 μM gentamicin alone, 48 h in culture, each segment): 50-70%
